According to paper PMC3990405 (Journal of controlled release : official journal of the …, 2013):
Read-outs that look alike come from different tables or passages of the source.

Tests used:
[1] = tested on: TNFα-induced cytotoxicity in L929 fibrosarcoma cells; experiment: L929 cytoprotection assay against TNFα; format: cell-based, murine
L929 cells = experiment: L929 cell proliferation / cytotoxicity without TNFα; format: cell-based, murine; details: curcumin in DMSO; not shown
phosphorylated NF-κB p65 = experiment: TNF-induced NF-κB p65 phosphorylation in U937 monocytes; format: cell-based, human
[2] = Plasma pharmacokinetics after i.m. injection proximal to the sciatic nerve; format: in vivo, C57BL/6 mice
[3] = format: in vivo, C57BL/6 mice
[4] = female, C57BL/6, mouse, plasma, im, 40 μl of 6 mM

SMILES: COc1cc(/C=C/C(=O)CC(=O)/C=C/c2ccc(O)c(OC)c2)ccc1O [curcumin]
- IC50 ([1]; Mus musculus, L929, 24 h): 13.5 µM
- Hill slope, k ([1]; logistic fit, Equation 1): 1.472
- dose with some cytotoxic effects (L929 cells): above 30 μM
- attenuation of TNF-induced increases in NF-kB phosphorylation (phosphorylated NF-κB p65; high (5 μM) and low (0.5 μM) doses, 50 ng/ml TNFα 10 min): able to attenuate TNF-induced increases in NF-kB phosphorylation in a dose-dependent manner
- effect on basal NF-kB phosphorylation (phosphorylated NF-κB p65; high (5 μM) and low (0.5 μM) doses, no TNFα): no statistically significant effect
- attenuation of TNF-induced monocyte NF-κB activation (phosphorylated NF-κB p65; high micromolar dose (5 μM), 2 h pre-incubation, 50 ng/ml TNFα 10 min): equally attenuated
- AUC [2, 4]: 0.87 ± 0.13 µM·h
- Tmax [2, 4]: 1 to 2 h
- time window with plasma curcumin significantly above naïve plasma ([2]; mouse, i.m., one-way ANOVA p < 0.0001): 0.5 to 4 h
- Mass of curcumin in injection-site tissue ([3]; 0 h, maximum recoverable, injected after sacrifice, n = 1): 158 nmol
- %ID (nmol/nmol) at injection site ([3]; 0 h, maximum recoverable, n = 1): 59 %ID
- %ID (nmol/nmol) at injection site ([3]; 2 h, mean ± SEM): 36 ± 8.9 %ID
- Mass of curcumin in injection-site tissue ([3]; 2 h, mean ± SEM): 98 ± 24 nmol
- %ID (nmol/nmol) at injection site ([3]; 48 h, mean ± SEM): 0.25 ± 0.002 %ID
- Mass of curcumin in injection-site tissue ([3]; 48 h, mean ± SEM): 0.67 ± 0.004 nmol
- %ID (nmol/nmol) at injection site ([3]; 96 h, mean ± SEM): 0.14 ± 0.04 %ID
- Mass of curcumin in injection-site tissue ([3]; 96 h, mean ± SEM): 0.39 ± 0.12 nmol
